Article PMC6069808, “Biochemical and structural features of diverse bacterial glucuronoyl esterases facilitating recalcitrant biomass conversion” (Biotechnology for Biofuels, 2018)

What was measured:
Experiment in all cases: uronate dehydrogenase-coupled assay (K-URONIC), NADH formation
OtCE15D = tested on: T1, OtCE15D; assay type: biochemical, Opitutus terrae; details: pH 7.5, 25 °C, 50 mM sodium phosphate, ≤10% DMSO
T1 construct: recombinant in E. coli Rosetta2(DE3), N-terminal His6 tag and TEV site (modified pET-28a)

SuCE15A = tested on: T2, SuCE15A; assay type: biochemical, Candidatus Solibacter usitatus; details: pH 7.5, 25 °C, 50 mM sodium phosphate, ≤10% DMSO
T2 construct: recombinant in E. coli BL21(DE3), N-terminal His6 tag and TEV site (modified pET-28a)

OtCE15C = tested on: T3, OtCE15C; assay type: biochemical, Opitutus terrae; details: pH 7.5, 25 °C, 50 mM sodium phosphate, ≤10% DMSO
T3 construct: recombinant in E. coli BL21(DE3), N-terminal His6 tag and TEV site (modified pET-28a)

OtCE15B = tested on: T4, OtCE15B; assay type: biochemical, Opitutus terrae; details: pH 7.5, 25 °C, 50 mM sodium phosphate, ≤10% DMSO
T4 construct: recombinant in E. coli BL21(DE3), N-terminal His6 tag and TEV site (modified pET-28a); Tyr in place of the conserved Arg next to catalytic Ser
From the text: uronate dehydrogenase-coupled assay (K-URONIC), NADH formation on OtCE15B

SlCE15B = target: T5, SlCE15B (Spirosoma linguale, UniProt D2QTM2); assay type: biochemical; details: pH 6.5, 25 °C, 50 mM sodium phosphate, ≤10% DMSO; range covers four enzymes
T5 construct: gene Slin_6195; recombinant in E. coli with tig coexpression (pTf16), N-terminal His6 tag and TEV site (modified pET-28a)
T5 sequence (D2QTM2 entry or part of it): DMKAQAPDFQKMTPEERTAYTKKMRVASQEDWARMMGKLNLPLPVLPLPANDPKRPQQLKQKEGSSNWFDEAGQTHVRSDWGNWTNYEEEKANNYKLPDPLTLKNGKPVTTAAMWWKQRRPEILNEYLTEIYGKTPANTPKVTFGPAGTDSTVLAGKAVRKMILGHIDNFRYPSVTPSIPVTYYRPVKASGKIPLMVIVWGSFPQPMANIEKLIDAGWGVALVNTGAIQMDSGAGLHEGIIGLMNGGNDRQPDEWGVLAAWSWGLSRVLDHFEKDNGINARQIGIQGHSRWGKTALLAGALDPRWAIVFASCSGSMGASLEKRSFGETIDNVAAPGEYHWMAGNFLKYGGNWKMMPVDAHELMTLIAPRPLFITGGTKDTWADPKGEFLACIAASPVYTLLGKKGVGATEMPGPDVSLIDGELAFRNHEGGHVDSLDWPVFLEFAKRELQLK

Compound	Km (OtCE15D) [µM]	Km (SuCE15A) [µM]	Km (OtCE15C) [µM]	Km (OtCE15B) [µM]	Km (OtCE15D; range covers four enzymes) [µM]	Km (SuCE15A; range covers four enzymes) [µM]	Km (OtCE15C; range covers four enzymes) [µM]	Km (SlCE15B) [µM]
C=CCOC(=O)[C@H]1OC(O)[C@H](O)[C@@H](O)[C@@H]1O (some centres unmarked) [AllylGlcA]	2080 ± 90	1240 ± 170	2210 ± 120					
O=C(OCc1ccccc1)[C@H]1OC(O)[C@H](O)[C@@H](O)[C@@H]1O (some centres unmarked) [BnzGlcA]				7940 ± 870	400 to 600	400 to 600	400 to 600	400 to 600
COC(=O)[C@H]1OC(O)[C@H](O)[C@@H](O)[C@@H]1O (some centres unmarked) [MeGlcA]	12300 ± 710	4310 ± 400	4010 ± 55					
